Laboratory results: EP4800018A1, “PAN-KRAS INHIBITOR AND USE THEREOF IN MEDICINES” (Betta Pharmaceuticals Co., Ltd., priority 2023, dated 2025)

Key:
[1] = PK Study of Compounds in Rats; type: in vivo, Male SD rats; details: mean; for AUC(0-t): read-out: AUC0-t; for Cmax: read-out: C0/Cmax
Description: (§1) The test compound was mixed with the vehicle (10% DMSO/5% Solutol/85% physiological saline), vortexed and sonicated to prepare a clear 0.5 mg/mL intravenous injection solution. The test compound was mixed with the vehicle (20% PEG400/10% Solutol/70% pH 4.5 acetate buffer), vortexed and sonicated to prepare a clear 1 mg/mL oral solution. Male SD rats aged 6 to 7 weeks were selected and administered the test compound via intravenous (IV) and oral (PO) routes, respectively. Whole blood samples were collected at 5 min, 15 min, 30 min, 1 h, 2 h, 4 h, 7 h, and 24 h for the intravenous route, and at 15 min, 30 min, 1 h, 2 h, 4 h, 7 h, and 24 h for the oral route. Drug concentrations were analyzed by LC-MS/MS method, and pharmacokinetic parameters were calculated using Phoenix WinNonlin software (Pharsight, USA).

[2] = system: KRAS-G12V mutant tumor cells SW620; experiment: Cell Proliferation Inhibition Assay (SW620), Cell-titer GLO, 96 h; type: cell-based; details: Homo sapiens, SW-620, 96 h, SW620 cells, 96 h incubation, Cell-titer GLO; read-out: SW620(G12V)
How it was run: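 Readout: Cell-titer GLO luminescence after 96 h at 37°C, converted to percent inhibition against 0.5% DMSO and blank controls, with IC50 from curve fit. Low-attachment SW620 cultures (1×10^3 cells/well) were dosed at 10000–0.03 nM final.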

[3] = PK Study of Compounds in Mice; type: in vivo, Female ICR mice; details: mean; for Cmax: read-out: C0/Cmax
Description: as §1, with “0.2” for “0.5”, “Female ICR mice” for “Male SD rats”

KRAS G12D-cRAF = molecular target: T1, KRAS G12D-cRAF (Homo sapiens, UniProt P01116, G12D); experiment: Cellular KRAS G12D-cRAF Binding Inhibition Assay (NanoBRET, AD293 stable cells); type: cell-based; details: 3 h incubation, read-out: NanoBRET KRAS G12D
T1 construct: expressed in transfected cells
How it was run: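 IC50 values derive from fitted % inhibition, normalised to maximum signal and medium-only blank. The read-out is NanoBRET between KRAS G12D-NanoLuc (donor) and cRAF RBD-HaloTag labelled with the 618 ligand (acceptor), in live stably transfected AD293 cells at 1×10^4/well.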

KRAS G12V-cRAF = molecular target: T2, KRAS G12V-cRAF (Homo sapiens, UniProt P01116, G12V); experiment: Cellular KRAS G12V-cRAF Binding Inhibition Assay (NanoBRET, AD293 stable cells); type: cell-based; details: 3 h incubation, read-out: NanoBRET KRAS G12V
T2 construct: expressed in transfected cells
How it was run: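 Binding measured as BRET between NanoLuc and HaloTag-bound NanoBRET 618 ligand (added overnight) in stably expressing AD293 cells. Signals were converted to percent inhibition against max and blank wells and fitted for IC50.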

[4] = system: KRAS-G12D mutant tumor cells AGS; experiment: Cell Proliferation Inhibition Assay (AGS), Cell-titer GLO, 96 h; type: cell-based; details: Homo sapiens, AGS, 96 h, AGS cells, 96 h incubation, Cell-titer GLO; read-out: AGS(G12D)
How it was run: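 Inhibition % was derived from CellTiter-Glo luminescence (max minus measured, over max minus blank) and fitted to give IC50. Cells were KRAS-G12D AGS in low-attachment wells, treated for 96 h at 37°C.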

[5] = PO 10 mg/kg vs IV 1 mg/kg (n=3)
[6] = male, SD, rat, whole blood, IV 1 mg/kg (n=3)
[7] = male, SD, rat, whole blood, PO 10 mg/kg (n=3)
[8] = female, ICR, mouse, whole blood, IV 1 mg/kg (n=3)
[9] = female, ICR, mouse, whole blood, PO 10 mg/kg (n=3)

T2 sequence (P01116 1-188 isoform P01116-2 G12V): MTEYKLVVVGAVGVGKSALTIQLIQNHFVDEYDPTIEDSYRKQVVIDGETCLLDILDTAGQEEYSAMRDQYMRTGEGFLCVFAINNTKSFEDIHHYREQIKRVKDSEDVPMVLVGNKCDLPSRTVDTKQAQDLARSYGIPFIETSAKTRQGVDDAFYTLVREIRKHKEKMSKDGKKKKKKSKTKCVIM
T1 sequence (P01116 1-188 isoform P01116-2 G12D): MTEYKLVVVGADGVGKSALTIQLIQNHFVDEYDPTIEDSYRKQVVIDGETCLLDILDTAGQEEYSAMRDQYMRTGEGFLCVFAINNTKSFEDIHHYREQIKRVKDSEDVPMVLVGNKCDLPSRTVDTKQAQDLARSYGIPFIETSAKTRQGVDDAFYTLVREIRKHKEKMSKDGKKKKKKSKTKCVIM

F [1, 5]: 19.5
clearance [1, 6]: 1.93 mL/min/kg
half-life [1, 6]: 8.4 h
AUC(0-t) [1, 6]: 7510 ng·h/mL
Cmax [1, 6]: 4250 ng/mL
Vd ([1]; male, SD, rat, whole blood, IV 1 mg/kg (n=3), read-out: Vss): 1.2 L/kg
AUC(0-t) [1, 7]: 14600 ng·h/mL
Cmax [1, 7]: 1370 ng/mL
Tmax ([1]; male, SD, rat, whole blood, PO 10 mg/kg (n=3), read-out: Tmax): 4 h
IC50 [2]: 0.15 nM
F [3, 5]: 31.1
AUC(0-t) [3, 8]: 3260 ng·h/mL
clearance [3, 8]: 4.45 mL/min/kg
half-life [3, 8]: 9.31 h
Cmax [3, 8]: 571 ng/mL
Vd ([3]; female, ICR, mouse, whole blood, IV 1 mg/kg (n=3), read-out: Vss): 3.09 L/kg
AUC(0-t) [3, 9]: 10100 ng·h/mL
Tmax [3, 9]: 4 h
Cmax [3, 9]: 679 ng/mL
IC50 (KRAS G12D-cRAF): 0.8 nM
IC50 (KRAS G12V-cRAF): 5.4 nM
IC50 [4]: 0.42 nM
SMILES: CC1OCCCn2c(c3c4cc(ccc42)-c2csc(n2)CC(NC(=O)C2C(C)C2C)C(=O)N2NC(C(=O)OCC(C)(C)C3)C3CC2C3)-c2cc(N3CCN(C)CC3)cnc21 [Example 186, (1r,2R,3S)-2,3-dimethyl-N-((1^5S,6^4S,4S,Z)-1^5,10,10-trimethyl-1^2-(4-methylpiperazin-1-yl)-5,7-dioxo-1^8,1^9-dihydro-1^5H,1^7H-8-oxa-6^2,6^3-diaza-1(13,15)-pyrido[3',2':7,8][1,5]oxazonino[5,6-a]indola-2(4,2)-thiazola-6(2,4)-bicyclo[3.1.1]heptanacycloundecaphane-4-yl)cyclopropane-1-carbox amide]
